The record followed here is patent publication US11396502B2, “Substituted heterocyclic derivatives as PI3K inhibitors” (Incyte Corporation, priority 2018, dated 2022).

Assay [1] deals with PI3Kδ (p110δ/p85α) (Homo sapiens (Human), UniProt O00329). Nature of the assay: PI3Kδ scintillation proximity assay. It counts as biochemical. The conditions noted are these: recombinant human PI3Kδ 3.4 nM, 20 μM PIP2, 2 μM ATP, 120 min, room temperature. The text has this: Example C. PI3Kδ Scintillation Proximity Assay Materials: [γ-^33P]ATP (10 mCi/mL) and Wheat Germ Agglutinin (WGA) YSi SPA Scintillation Beads was purchased from Perkin Elmer (Waltham, Mass.). Lipid kinase substrate, D-myo-Phosphatidylinositol 4,5-bisphosphate (PtdIns(4,5)P2)D (+)-sn-1,2-di-O-octanoylglyceryl, 3-O-phospho linked (PIP2), CAS 204858-53-7, was purchased from Echelon Biosciences (Salt Lake City, Utah). PI3Kδ (p110δ/p85α) Recombinant Human Protein was purchased from Eurofins (St Charles, Mo.). ATP, MgCl2, DTT, EDTA, MOPS and CHAPS were purchased from Sigma Aldrich (St. Louis, Mo.). The kinase reaction was conducted in polystyrene 384-well Greiner Bio-one white plate from Thermo Fisher Scientific in a final volume of 25 μL. Inhibitors were first diluted serially in DMSO and added to the plate wells before the addition of other reaction components. The final concentration of DMSO in the assay was 2%. The PI3Kδ assay was carried out at room temperature in 20 mM MOPS, pH 6.7, 10 mM MgCl2, 5 mM DTT and CHAPS 0.03%. Reactions were initiated by the addition of ATP, the final reaction mixture consisted of 20 μM PIP2, 2 μM ATP, 0.5 μCi [γ-^33P] ATP, 3.4 nM PI3Kδ. Reactions were incubated for 120 min and terminated by the addition of 40 μL SPA beads suspended in quench buffer: 163 mM potassium phosphate pH 7.8, 20% glycerol, 25 mM EDTA. The final concentration of SPA beads is 1.0 mg/mL. After the plate sealing, plates were shaken overnight at room temperature and centrifuged at 1500 rpm for 10 min, the radioactivity of the product was determined by scintillation counting on Topcount (PerkinElmer). IC50 determination was performed by fitting the curve of percent of the solvent control activity versus the log of the inhibitor concentration using the GraphPad Prism 6.0 software.
Sequence of PI3Kδ (p110δ/p85α) (O00329 whole entry): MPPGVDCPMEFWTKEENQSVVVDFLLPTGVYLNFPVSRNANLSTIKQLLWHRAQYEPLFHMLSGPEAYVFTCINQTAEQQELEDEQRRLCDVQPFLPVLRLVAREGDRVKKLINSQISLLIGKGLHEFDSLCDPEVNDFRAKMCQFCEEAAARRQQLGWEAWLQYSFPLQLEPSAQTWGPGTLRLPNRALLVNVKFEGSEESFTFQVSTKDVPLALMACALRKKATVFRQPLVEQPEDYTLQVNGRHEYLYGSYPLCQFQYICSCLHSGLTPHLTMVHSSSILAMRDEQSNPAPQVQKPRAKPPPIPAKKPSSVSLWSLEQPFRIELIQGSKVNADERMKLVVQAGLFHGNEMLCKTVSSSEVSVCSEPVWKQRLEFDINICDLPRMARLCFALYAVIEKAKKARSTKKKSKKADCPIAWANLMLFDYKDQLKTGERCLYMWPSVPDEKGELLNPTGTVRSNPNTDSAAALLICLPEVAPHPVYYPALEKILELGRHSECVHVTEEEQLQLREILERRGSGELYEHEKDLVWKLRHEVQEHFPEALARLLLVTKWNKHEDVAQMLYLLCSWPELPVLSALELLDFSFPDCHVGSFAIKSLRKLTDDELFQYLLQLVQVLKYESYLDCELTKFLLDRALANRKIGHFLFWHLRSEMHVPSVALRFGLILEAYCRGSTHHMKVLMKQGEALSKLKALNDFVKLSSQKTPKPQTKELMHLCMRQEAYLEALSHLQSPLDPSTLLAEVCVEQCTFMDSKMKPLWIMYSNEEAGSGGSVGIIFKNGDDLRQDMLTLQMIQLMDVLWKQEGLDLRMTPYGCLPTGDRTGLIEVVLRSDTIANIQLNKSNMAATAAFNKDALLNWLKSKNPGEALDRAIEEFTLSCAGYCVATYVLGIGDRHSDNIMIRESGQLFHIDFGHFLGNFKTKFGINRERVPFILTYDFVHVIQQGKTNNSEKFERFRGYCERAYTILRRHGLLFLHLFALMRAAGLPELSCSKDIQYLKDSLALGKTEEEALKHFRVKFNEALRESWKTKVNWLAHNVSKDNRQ
Sequence of PI3Kδ (p110δ/p85α) (P27986 whole entry partner): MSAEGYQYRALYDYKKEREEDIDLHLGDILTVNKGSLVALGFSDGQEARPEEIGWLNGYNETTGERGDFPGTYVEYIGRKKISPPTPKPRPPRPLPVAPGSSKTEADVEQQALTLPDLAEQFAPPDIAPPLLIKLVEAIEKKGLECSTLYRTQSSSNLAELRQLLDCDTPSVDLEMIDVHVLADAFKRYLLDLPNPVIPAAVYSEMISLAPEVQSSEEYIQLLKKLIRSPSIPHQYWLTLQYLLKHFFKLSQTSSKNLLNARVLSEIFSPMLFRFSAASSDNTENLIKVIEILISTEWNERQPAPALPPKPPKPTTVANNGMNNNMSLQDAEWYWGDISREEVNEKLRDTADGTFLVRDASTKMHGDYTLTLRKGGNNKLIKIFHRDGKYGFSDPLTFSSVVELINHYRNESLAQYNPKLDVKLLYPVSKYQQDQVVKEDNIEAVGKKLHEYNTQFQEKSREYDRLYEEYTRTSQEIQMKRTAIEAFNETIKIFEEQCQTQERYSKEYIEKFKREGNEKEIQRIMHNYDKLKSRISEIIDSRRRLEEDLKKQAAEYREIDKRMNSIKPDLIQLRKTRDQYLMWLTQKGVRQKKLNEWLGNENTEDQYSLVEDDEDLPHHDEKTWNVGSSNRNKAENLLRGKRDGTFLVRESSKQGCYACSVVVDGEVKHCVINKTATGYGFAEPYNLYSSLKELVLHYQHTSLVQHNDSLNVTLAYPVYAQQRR
In general terms: In a scintillation proximity assay essentially only radioactivity close to the scintillant gives light.

For assay [2], the target named is PI3Kγ (p110γ) (Homo sapiens (Human), UniProt P48736). Nature of the assay: PI3K-γ scintillation proximity assay. The note with it: recombinant human PI3Kγ 13 nM, 20 μM PIP2, 2 μM ATP, 120 min, room temperature. The format is biochemical. The text has this:
Example B. PI3K-γ Scintillation Proximity Assay Materials: [γ-^33P]ATP (10 mCi/mL) and Wheat Germ Agglutinin (WGA) YSi SPA Scintillation Beads was purchased from Perkin Elmer (Waltham, Mass.). Lipid kinase substrate, D-myo-Phosphatidylinositol 4,5-bisphosphate (PtdIns(4,5)P2)D (+)-sn-1,2-di-O-octanoylglyceryl, 3-O-phospho linked (PIP2), CAS 204858-53-7, was purchased from Echelon Biosciences (Salt Lake City, Utah). PI3Kγ (p110γ) Recombinant Human Protein was purchased from Life technology (Grand Island, N.Y.). ATP, MgCl2, DTT, EDTA, MOPS and CHAPS were purchased from Sigma Aldrich (St. Louis, Mo.). The kinase reaction was conducted in polystyrene 384-well Greiner Bio-one white plate from Thermo Fisher Scientific in a final volume of 25 μL. Inhibitors were first diluted serially in DMSO and added to the plate wells before the addition of other reaction components. The final concentration of DMSO in the assay was 2%. The PI3Kγ assay was carried out at room temperature in 20 mM MOPS, pH 6.7, 10 mM MgCl2, 5 mM DTT and CHAPS 0.03%. Reactions were initiated by the addition of ATP, the final reaction mixture consisted of 20 μM PIP2, 2 μM ATP, 0.5 μCi [γ-^33P] ATP, 13 nM PI3Kγ. Reactions were incubated for 120 min and terminated by the addition of 40 μL SPA beads suspended in quench buffer: 163 mM potassium phosphate pH 7.8, 20% glycerol, 25 mM EDTA. The final concentration of SPA beads is 1.0 mg/mL. After the plate sealing, plates were shaken overnight at room temperature and centrifuged at 1500 rpm for 10 min, the radioactivity of the product was determined by scintillation counting on Topcount (Perkin-Elmer). IC50 determination was performed by fitting the curve of percent of the solvent control activity versus the log of the inhibitor concentration using the GraphPad Prism 6.0 software.

For assay [3], the system named is Phosphorylated Ribosomal Protein S6 (RPS6) in THP-1 cells. Nature of the assay: THP-1 RPS6 ELISA assay. The conditions noted are these: 2 hours compound, 10 nM MCP-1 for 15 minutes, Phospho-RPS6 ELISA, read-out: PI3Kγ_THP1_RPS6_ELISA IC50. The format is cell-based, Human. As for the experimental part:
Example A. THP-1 RPS6 ELISA Assay
To measure the Phosphorylated Ribosomal Protein S6 (RPS6) in cell lysates, THP-1 cells (Human Acute Monocytic Leukemia) are purchased from ATCC (Manassas, Va.) and maintained in RPMI with 10% FBS (Gibco/Life Technologies, Carlsbad, Calif.). For the assay, THP-1 cells are serum starved overnight in RPMI, then plated in RPMI (2×10^5 cells/well in 90 μL) into 96-well flat-bottom tissue culture treated plates (Corning, Corning, N.Y.), in the presence or absence of a concentration range of test compounds. Covered plates are incubated for 2 hours at 37° C., 5% CO2 then treated with or without 10 nM MCP-1 (MYBioSource, San Diego, Calif.) for 15 minutes at 37° C., 5% CO2. Plates are centrifuged at 1600 RPM and supernatants are removed. Cells are lysed in Lysis Buffer (Cell Signaling, Danvers, Mass.) with Protease Inhibitor (Calbiochem/EMD, Germany), PMSF (Sigma, St Louis Mo.), HALTS (Thermo Fisher, Rockford, Ill.) for 30 min on wet ice. Cell lysates are frozen at −80° C. before testing. The lysates are tested in the Human/Mouse/Rat Phospho-RPS6 ELISA (R&D Systems, Inc. Minn, Minn.). The plate is measured using a microplate reader (SpectraMax M5—Molecular Devices, LLC Sunnyvale, Calif.) set to 450 nm with a wavelength correction of 540. IC50 determination is performed by fitting the curve of inhibitor percent inhibition versus the log of the inhibitor concentration using the GraphPad Prism 5.0 software.
For orientation: In an ELISA, binding on a coated surface is turned into a signal by an enzyme label.

Where [4] appears, read: Homo sapiens, THP-1, serum starved THP-1 cells.

pIC50: −log10 of the molar value. Counter-ions that a name gives are not always drawn. Like-named read-outs stand apart in the source and are kept apart here.

Sequence of PI3Kγ (p110γ) (P48736 whole entry): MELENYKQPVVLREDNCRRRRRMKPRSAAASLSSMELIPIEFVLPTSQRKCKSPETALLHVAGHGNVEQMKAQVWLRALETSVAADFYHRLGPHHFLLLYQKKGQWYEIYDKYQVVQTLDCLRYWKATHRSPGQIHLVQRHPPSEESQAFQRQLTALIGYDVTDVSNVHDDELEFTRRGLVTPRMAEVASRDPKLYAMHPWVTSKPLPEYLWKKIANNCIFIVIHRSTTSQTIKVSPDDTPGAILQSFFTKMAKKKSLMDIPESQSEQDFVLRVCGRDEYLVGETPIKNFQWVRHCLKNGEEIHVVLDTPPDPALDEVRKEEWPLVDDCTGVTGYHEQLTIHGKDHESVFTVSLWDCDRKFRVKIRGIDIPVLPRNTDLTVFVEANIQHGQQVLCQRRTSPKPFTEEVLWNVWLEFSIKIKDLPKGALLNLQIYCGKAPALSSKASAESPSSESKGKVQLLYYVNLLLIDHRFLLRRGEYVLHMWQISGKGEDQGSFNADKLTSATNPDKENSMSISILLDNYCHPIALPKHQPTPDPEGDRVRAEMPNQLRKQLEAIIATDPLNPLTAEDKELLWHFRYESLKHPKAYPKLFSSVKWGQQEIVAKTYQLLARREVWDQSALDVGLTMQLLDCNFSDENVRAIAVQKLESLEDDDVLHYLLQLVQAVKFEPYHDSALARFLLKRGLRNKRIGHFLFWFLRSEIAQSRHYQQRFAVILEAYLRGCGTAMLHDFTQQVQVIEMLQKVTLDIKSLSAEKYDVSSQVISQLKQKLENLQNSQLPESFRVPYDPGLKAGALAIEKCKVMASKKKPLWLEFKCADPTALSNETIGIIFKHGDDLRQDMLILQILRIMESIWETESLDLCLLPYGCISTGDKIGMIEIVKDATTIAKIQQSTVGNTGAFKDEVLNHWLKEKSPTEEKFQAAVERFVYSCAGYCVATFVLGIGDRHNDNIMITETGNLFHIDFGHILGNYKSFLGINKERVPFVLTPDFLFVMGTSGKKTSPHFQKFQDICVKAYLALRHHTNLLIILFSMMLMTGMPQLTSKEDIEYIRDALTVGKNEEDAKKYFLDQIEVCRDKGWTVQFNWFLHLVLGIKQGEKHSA

Broadly, the pIC50 is the IC50 on a negative log10 scale, so that one unit is a factor of ten. For `Cc1[nH]c(-c2cc(-c3cc4c(c(S(C)(=O)=O)c3)C(=O)N([C@@H](C)C3CC3)C4)ccn2)nc1C(=O)NC1CC(O)C1` (mixture of isomers) [Example 7f, (S)-2-(4-(2-(1-Cyclopropylethyl)-7-(methylsulfonyl)-1-oxoisoindolin-5-yl)pyridin-2-yl)-N-(3-hydroxycyclobutyl)-4-methyl-1H-imidazole-5-carboxamide, trifluoroacetate salt (mixture of two diastereomers)], the negative logarithm of the IC50 (pIC50) in assay [1] is 6.30 to 7.00; in assay [2] it was more than 7.00; in assay [3] (setting [4]), less than 6.00.
On to `Cc1[nH]c(-c2cc(-c3cc4c(c(S(C)(=O)=O)c3)C(=O)N([C@@H](C)C3CC3)C4)ccn2)nc1C(=O)NC1CCOC1` (mixture of isomers) [Example 7n, 2-(4-(2-((S)-1-Cyclopropylethyl)-7-(methylsulfonyl)-1-oxoisoindolin-5-yl)pyridin-2-yl)-4-methyl-N-(tetrahydrofuran-3-yl)-1H-imidazole-5-carboxamide, trifluoroacetate salt (mixture of two diastereomers)], for which the pIC50 in assay [1] was 6.30 to 7.00; in assay [2], more than 7.00; in assay [3] (setting [4]), 6.30 to 7.00.
`Cc1nc(-c2cc(-c3cc4c(c(S(C)(=O)=O)c3)C(=O)N([C@@H](C)C3CC3)C4)ccn2)[nH]c1C(=O)NC(C)C(F)(F)F` (single isomer, unassigned) [Example 7g]: the pIC50 in assay [1] is 6.30 to 7.00; in assay [2] it was more than 7.00; in assay [3] (serum starved THP-1 cells), less than 6.00.
The matching figures for `CCC(C)NC(=O)c1[nH]c(-c2cc(-c3cc4c(c(S(C)(=O)=O)c3)C(=O)N([C@@H](C)C3CC3)C4)ccn2)nc1C` (single isomer, unassigned) [Example 7l]: 6.30 to 7.00, more than 7.00 and 6.30 to 7.00.
For the compound `Cc1nc(-c2cc(-c3cc4c(c(S(C)(=N)=O)c3)C(=O)N([C@@H](C)C3CC3)C4)ccn2)[nH]c1C` (single isomer, unassigned) [Example 22], the pIC50 was 5.70 to 6.30 in assay [1], more than 7.00 in assay [2] and 6.00 to 6.30 in assay [3] (setting [4]).
For `CN=S(C)(=O)c1cc(-c2ccnc(-c3nc(C)c(C)[nH]3)c2)cc2c1C(=O)N([C@@H](C)C1CC1)C2` (single isomer, unassigned) [Example 25], in that order: 5.70 to 6.30, more than 7.00 and 6.00 to 6.30.
The matching figures for `Cc1cnc(-c2cc(-c3cc4c(c(N=S(C)(C)=O)c3)C(=O)N([C@@H](C)C3CC3)C4)ccn2)[nH]1` (single isomer, unassigned) [Example 26]: less than 5.70, more than 7.00 and less than 6.00.
For `Cc1nc(-c2cc(-c3cc(Cl)c4c(c3)CN([C@@H](C)C3CC3)C4=O)ccn2)[nH]c1C` [Example 1, (S)-7-Chloro-2-(1-cyclopropylethyl)-5-(2-(4,5-dimethyl-1H-imidazol-2-yl)pyridin-4-yl)isoindolin-1-one], in that order: 6.30 to 7.00, more than 7.00 and 6.00 to 6.30.
Consider `Cc1nc(-c2cc(-c3cc4c(c(S(C)(=O)=O)c3)C(=O)N([C@@H](C)C3CC3)C4)ccn2)[nH]c1C` [Example 2, (S)-2-(1-Cyclopropylethyl)-5-(2-(4,5-dimethyl-1H-imidazol-2-yl)pyridin-4-yl)-7-(methylsulfonyl)isoindolin-1-one Trifluoroacetate Salt], for which the pIC50 in assay [1] is 6.30 to 7.00; in assay [2], more than 7.00; in assay [3] (setting [4]), 6.00 to 6.30.
On to `Cc1nc(-c2cc(-c3cc4c(c(S(C)(=O)=O)c3)C(=O)N([C@@H](C)C3CC3)C4)cnn2)[nH]c1C` [Example 8, (S)-2-(1-Cyclopropylethyl)-5-(6-(4,5-dimethyl-1H-imidazol-2-yl)pyridazin-4-yl)-7-(methylsulfonyl)isoindolin-1-one Trifluoroacetate Salt], for which the pIC50 was less than 5.70 in assay [1] and more than 7.00 in assay [2].
The matching figures for `Cc1cc(-c2cc(-c3ccc4c(c3)CN([C@@H](C)C3CC3)C4=O)cnn2)[nH]n1` [Example 11, (S)-2-(1-Cyclopropylethyl)-5-(6-(3-methyl-1H-pyrazol-5-yl)pyridazin-4-yl)isoindolin-1-one Trifluoroacetate Salt]: less than 5.70 and 5.70 to 6.30.
For `Cc1nnc(-c2cc(-c3ccc4c(c3)CN([C@@H](C)C3CC3)C4=O)ccn2)[nH]1` [Example 13, (S)-2-(1-Cyclopropylethyl)-5-(2-(5-methyl-4H-1,2,4-triazol-3-yl)pyridin-4-yl)isoindolin-1-one], in that order: less than 5.70 and more than 7.00.
For `Cc1nc(-c2cc(-c3cc4c(c(C(O)CO)c3)C(=O)N([C@@H](C)C3CC3)C4)cnn2)[nH]c1C` (stereo partly drawn) [Example 19, 2-((S)-1-Cyclopropylethyl)-7-(1,2-dihydroxyethyl)-5-(6-(4,5-dimethyl-1H-imidazol-2-yl)pyridazin-4-yl)isoindolin-1-one, Trifluoroacetate Salt], in that order: less than 5.70 and more than 7.00.
Consider `Cc1nc(-c2cc(-c3cc4c(c(S(C)(=N)=O)c3)C(=O)N([C@@H](C)C3CC3)C4)ccn2)[nH]c1C` (stereo partly drawn) [Example 21, 2-((S)-1-Cyclopropylethyl)-5-(2-(4,5-dimethyl-1H-imidazol-2-yl)pyridin-4-yl)-7-(S-methylsulfonimidoyl)isoindolin-1-one], for which the pIC50 in assay [3] (serum starved THP-1 cells) was 6.00 to 6.30.
Same read-out and setting: as for `CN=S(C)(=O)c1cc(-c2ccnc(-c3nc(C)c(C)[nH]3)c2)cc2c1C(=O)N([C@@H](C)C1CC1)C2` (stereo partly drawn) [Example 24, 2-((S)-1-Cyclopropylethyl)-5-(2-(4,5-dimethyl-1H-imidazol-2-yl)pyridin-4-yl)-7-(N,S-dimethylsulfonimidoyl)isoindolin-1-one], the figure is 6.30 to 7.00.
